Patent publication US20230365625A1, “METHODS FOR TREATING AND/OR PREVENTING UNDESIRABLE SEQULAE OF NASAL TURBINOPLASTY OR FUNCTIONAL ENDOSCOPIC SINUS SURGERY” (3-D Matrix, Ltd., priority 2022, published 2023)
Where “and” joins values, the source holds several entries; their conditions need not be identical. Equal values may be shown once. Entries after “also recorded” stand apart in the source; their conditions may differ.

Key:
[1] = system: mucosa at the operated middle turbinate sites; assay: Histopathology of the surgical site at 6 weeks (H&E, 6 markers of wound healing), sheep model; assay type: in vivo, Merino sheep
Protocol: Termination—At day 42, the animals were euthanized with standard terminal procedures through an intravenous injection of sodium pentobarbital. Post-termination, the mucosa at the operated middle turbinate sites were excised and prepared via hematoxylin and eosin staining by a veterinary histopathologist using 6 different markers of wound healing as shown in Table 3. [table] Histopathology observations—Vertical incisions through the roof and floor of the nasal cavity were performed during necropsy after endoscopic evaluation. This allowed both lateral nasal walls to be opened outwards from the septum whereby the operated mucosa adjacent to the vomer could be easily identified and excised atraumatically. Specimens were preserved in 10% neutral buffered formalin and transported for hematoxylin and eosin staining and slide preparation. Example specimens are shown in FIGS. 4A and 4B for PuraSinus treated tissue and FIGS. 5A and 5B for FLOSEAL treated tissue. Individual sample observations are presented in Appendix 3.

[2] = system: Functional Endoscopic Sinus Surgery (FESS) surgical wound; assay type: in vivo, human
Text: Study design—This study was a retrospective chart review of 94 consecutive human patients who underwent FESS and who were operated on by a single surgeon in a single center in Perth, Western Australia. FIGS. 6A and 6B show a flowchart of patients based on extent of surgery and outcomes. Only patients treated with PuraSinus alone (no other hemostatic agent was used) were included in the analysis. Ethics approval was obtained from St John of Good Health Care Human Research Ethics Committee.
Patient population—The study included adult human patients who underwent FESS procedures and also included patients who underwent FESS in combination with nasal surgery (septoplasty and/or turbinoplasty). Both primary and revision cases were included. Patients were discharged the day after surgery with a recommendation to perform saline nasal irrigations no less than four times a day. Patient characteristics, indication for surgery, extent of surgical intervention, and bleeding and adhesion information was recorded.
Surgical categories—Procedures were performed according to the minimally invasive sinus technique (MIST), including combination of maxillary antrostomy, ethmoidectomies, sphenoidotomies and frontal sinus (Draf Ila, or Draf 111), turbinate reduction and/or septoplasty. FESS procedures were categorized into two groups: complete FESS (including all sinuses—maxillary antrostomy, ethmoidectomy, sphenoidotomy, and frontal sinusotomy) or limited FESS (anything less than complete FESS, usually involves antrostomy and ethmoidectomy). The surgical extent was dictated by the patient's condition and the surgeon's clinical judgement.
Material used—PuraSinus (licensed as PuraStat in Australia, 3D-Matrix)/RADA16-I (SEQ ID NO:1) 2.5% w/v in water is a transparent SAP solution supplied sterile in a pre-filled syringe (available in a 3 mL and 5 mL form) ready for use with a thin application nozzle suited for endoscopic catheter administration. The syringe is stored at between 2° C. and 8° C. At completion of the FESS procedure, PuraSinus was applied to the surgical wound in a thin and even layer as close as possible to the bleeding point. A similar application technique has been outlined previously (M. Lee et al., Int. J. Surg. Case Rep. 41: 461-4 (2017)). […] Tissues treated with the hydrogel were visible via endoscope given the gel's transparency.
Outcomes and objectives—The objectives of this study were to evaluate the effectiveness of PuraSinus in rapidly achieving intraoperative hemostasis and to assess the incidence of delayed bleeding ([…]) and synechiae formation via endoscopic observation of the nasal mucosa at follow-up visits. Primary bleeding was defined as bleeding occurring within 24 hours of surgery.
Data analysis—Statistical analysis was performed using descriptive statistics for continuous variables and patient demographics were reported. The rate of successful hemostasis and incidence of synechiae formation were calculated as a proportion of total patients undergoing FESS.

[3] = 2.5% in water; cited from earlier work
[4] = system: turbinate reduction surgery (TRS/Turbinoplasty); settings: first follow-up at four weeks; result in words; cited from earlier work
[5] = individual site, 6 weeks, scale 0-3, listed as P
[6] = individual site, 6 weeks, scale −1-1, listed as P

With `CC(=O)N[C@@H](CCCNC(=N)N)C(=O)N[C@@H](C)C(=O)N[C@@H](CC(=O)O)C(=O)N[C@@H](C)C(=O)N[C@@H](CCCNC(=N)N)C(=O)N[C@@H](C)C(=O)N[C@@H](CC(=O)O)C(=O)N[C@@H](C)C(=O)N[C@@H](CCCNC(=N)N)C(=O)N[C@@H](C)C(=O)N[C@@H](CC(=O)O)C(=O)N[C@@H](C)C(=O)N[C@@H](CCCNC(=N)N)C(=O)N[C@@H](C)C(=O)N[C@@H](CC(=O)O)C(=O)N[C@@H](C)C(N)=O` [PuraSinus, Ac-RADARADARADARADA-NH2] the “Angiogenesis (A): number of sites Grade 0” value ([1]; 6 weeks) was 9, the “Angiogenesis (A): number of sites Grade 1” value ([1]; 6 weeks) was 6 and the “Angiogenesis (A): number of sites Grade 2” value ([1]; 6 weeks) was 4. The “Angiogenesis (A): number of sites Grade 3” value ([1]; 6 weeks) was 1, the “Epithelial erosion (EE): number of sites Grade 0” value ([1]; 6 weeks) was 5 and the “Epithelial erosion (EE): number of sites Grade 1” value ([1]; 6 weeks) was 8. The “Epithelial erosion (EE): number of sites Grade 2” value ([1]; 6 weeks) was 6, the “Epithelial erosion (EE): number of sites Grade 3” value ([1]; 6 weeks) was 1 and the “Goblet cells (GC): number of sites Grade 0” value ([1]; 6 weeks) was 6. The “Goblet cells (GC): number of sites Grade +1” value ([1]; 6 weeks) was 6, the “Goblet cells (GC): number of sites Grade −1” value ([1]; 6 weeks) was 8 and the “Inflammatory infiltrate (II): number of sites Grade 0” value ([1]; 6 weeks) was 3. For the same compound, the “Inflammatory infiltrate (II): number of sites Grade 1” value ([1]; 6 weeks) was 13, the “Inflammatory infiltrate (II): number of sites Grade 2” value ([1]; 6 weeks) was 4 and the “Inflammatory infiltrate (II): number of sites Grade 3” value ([1]; 6 weeks) was 0. For the same compound, the “Sero-mucous glands (SMC): number of sites Grade 0” value ([1]; 6 weeks) was 14, the “Sero-mucous glands (SMC): number of sites Grade +1” value ([1]; 6 weeks) was 0 and the “Sero-mucous glands (SMC): number of sites Grade −1” value ([1]; 6 weeks) was 6. For the same compound, the “Submucosal fibrosis (SF): number of sites Grade 0” value ([1]; 6 weeks) was 4, the “Submucosal fibrosis (SF): number of sites Grade 1” value ([1]; 6 weeks) was 12 and the “Submucosal fibrosis (SF): number of sites Grade 2” value ([1]; 6 weeks) was 3. For the same compound, the “Submucosal fibrosis (SF): number of sites Grade 3” value ([1]; 6 weeks) was 1, the “Mucosal regeneration / wound healing on histopathology” value ([1]; 6 weeks, result in words) was “favorable outcomes for wound healing enhancement across all 6 metrics; also recorded: enhancement to mucosal regeneration; also recorded: more commonly associated with enhanced mucosal regeneration; also recorded: improved outcome” and the “Angiogenesis (A): Mean score” value ([1]; 6 weeks, scale 0-3) was 0.85. The “Epithelial erosion (EE): Mean score” value ([1]; 6 weeks, scale 0-3) was 1.15, the “Inflammatory infiltrate (II): Mean score” value ([1]; 6 weeks, scale 0-3) was 1.05 and the “Submucosal fibrosis (SF): Mean score” value ([1]; 6 weeks, scale 0-3) was 1.05. The “Goblet cells (GC): Mean score” value ([1]; 6 weeks, scale −1-1) was −0.1, the “Sero-mucous glands (SMC): Mean score” value ([1]; 6 weeks, scale −1-1) was −0.3 and the “A (angiogenesis) grade” value [1, 5] was 1 (6×) and 3 and 0 (9×) and 2 (4×). The “EE (epithelial erosion) grade” value [1, 5] was 1 (8×) and 2 (6×) and 0 (5×) and 3, the “II (inflammatory infiltrate) grade” value [1, 5] was 2 (4×) and 1 (13×) and 0 (3×) and the “SF (submucosal fibrosis) grade” value [1, 5] was 1 (12×) and 2 (3×) and 0 (4×) and 3. For the same compound, the “GC (goblet cells) grade” value [1, 6] was −1 (8×) and 1 (6×) and 0 (6×), the “SMC (sero-mucous glands) grade” value [1, 6] was −1 (6×) and 0 (14×) and the 6-week histopathology scores ([1]; result in words, driven by reduced submucosal fibrosis and angiogenesis) was “significantly lower”. The Blood transfusion required ([2]; human, in vivo) was “None of the patients in this study required a blood transfusion”, the “Secondary bleed, patients” value ([2]; more than 24 hours after surgery, n of 94) was 3 and the “Secondary bleed, rate” value ([2]; more than 24 hours after surgery, of 94 patients) was 3.2%. The “Intervention required for bleeding, patients” value ([2]; n of 94) was 4, the “Intervention required, primary bleed, patients” value ([2]; n of 94) was 3 and the “Intervention required, secondary bleed, patients” value ([2]; n of 94) was 1. The “Bleed (postoperative), patients” value ([2]; n of 94 patients) was 6, the “Hemostatic effectiveness, patients” value ([2]; no bleeding or no intervention required, n of 94) was 90 and the “Hemostatic effectiveness, rate” value ([2]; no bleeding or no intervention required, of 94 patients) was 95.7%. The “Type of intervention: Cautery + Surgiflo, patients” value ([2]; of 4 interventions) was 1, the “Type of intervention: Cautery + additional PuraSinus, patients” value ([2]; of 4 interventions) was 1 and the “Type of intervention: Cautery alone, patients” value ([2]; of 4 interventions) was 1. The “Type of intervention: Packing, patients” value ([2]; of 4 interventions) was 1, the “Bleeding patients on anticoagulation/antiplatelets post-op” value ([2]; of 6 bleeds) was 1 and the “Bleeding patients with suspected or confirmed coagulopathy” value ([2]; of 6 bleeds) was 2. For the same compound, the “Patients with postoperative bleeding: Complete FESS” value ([2]; of 6 bleeds) was 1, the “Patients with postoperative bleeding: Female” value ([2]; of 6 bleeds) was 5 and the “Patients with postoperative bleeding: Limited FESS” value ([2]; of 6 bleeds) was 5. For the same compound, the “Patients with postoperative bleeding: Male” value ([2]; of 6 bleeds) was 1, the “Bleed (postoperative), rate” value ([2]; of 94 patients) was 6.4% and the “Intervention required for bleeding, rate” value ([2]; of 94 patients) was 4.3% and 4.2%. The “Intervention required, primary bleed, rate” value ([2]; of 94 patients) was 3.2%, the “Intervention required, secondary bleed, rate” value ([2]; of 94 patients) was 1.1% and the “Re-bleeds in patients with primary or secondary bleeds” value ([2]; result in words) was “no re-bleeds recorded”. For the same compound, the “Hemostasis in the absence of other hemostatic agents and devices” value ([2]; result in words, most patients) was “effective hemostasis”, the “Primary bleed, patients” value ([2]; within 24 hours of surgery, n of 94) was 3 and the “Primary bleed, rate” value ([2]; within 24 hours of surgery, of 94 patients) was 3.2%. For the same compound, the “Storage modulus G′” value [3] was “about 350 Pa” and the “Postoperative bleeding or adhesion formation” value [4] was “none of their patients experiencing bleeding or adhesion formation postoperatively”.
